In patent publication US20180207228A1, “PEPTIDE COMBINATIONS AND USES THEREOF FOR TREATING GRASS ALLERGY” (ALK-Abelló A/S, priority 2015, published 2018):
Where no end group is shown, it is not given here.

Key:
Type in all cases: cell-based, human
[1] = test system: release of IL-5 upon T cell activation; test: Fluorospot assay, IL-5 release (DK1-TCL01, US1-TCL01); settings: head prints TCL-02 DK1; text: 25 TCL-01 DK1 lines
Procedure: (§1) Grass allergic donors were recruited (cohort DK1 including 30 grass allergic individuals, DK2 including 24 grass allergic individuals and US1 including 15 grass allergic individuals). PBMCs were isolated from freshly drawn heparinized blood by gradient centrifugation on lymphoprep (Nycomed, Norway), washed twice and re-suspended in RPMI 1640 medium with HEPES and ultraglutamine (Cambrex, Belgium) supplemented with 5% v/v human AB-serum (Cambrex, Belgium), 100 units/ml penicillin, and 0.1 mg/ml streptomycin (Sigma, St Louis, USA) (referred to as 5% AB-medium). Aliquots of the isolated PBMCs were frozen and were thawed later to stimulate the T cell lines. Additionally either fresh or thawed PBMCs were used as antigen presenting cells (APCs) in the proliferation assay as described later. In some cases the PBMCs were freezed at this stage and thawed later on to continue the experiment as described in the following. The isolated PBMCs (fresh or thawed) were CD8 depleted by MACS magnetic depletion according to the manufacturer's instructions (Miltenyi Biotec, Bergisch Gladbach, Germany). On day 0 the CD8-depleted PBMCs (2×10^6/ml) were stimulated in 1 ml bulk cultures in AB medium in 24 well plates (Nunc, Denmark) with the mixture of natural allergens: nPhl p 1 (0.5 μg/ml), mix of nPhl p 2/nPhl p 3 (1.0 μg/ml), nPhl p 4 (0.5 μg/ml), nPhl p 5 (0.5 μg/ml) and nCyn d 1 (0.5 μg/ml). Amount of 65 U, 30 U, and 30 U recombinant IL-2 (Chiron, USA) were added per well at days 5, 6 and 7, respectively. On day 14 cells were harvested to obtain T cell line generation 01 (referred to as TCL01).
(§2) On day 14 the T cells of TCL01 were isolated, washed and counted. The isolated T cells of TCL01 generation were used to perform either ELISpot or Fluorospot assay. TCL01 were further re-stimulated as described in the next paragraph for use in T cell proliferation. The aliquot for use in T cell proliferation was re-stimulated on day 14 to carry out proliferation experiment at day 24.
(§3) In the Fluorospot assays, release of IL-5 and IFN-γ upon T cell activation (of donor derived lines DK1-TCL01, and US1-TCL01) with a peptide or a peptide-mix described herein was measured by Fluorospot assay kit (Mabtech AB) and procedures were followed as per manufacturer's instructions. Briefly anti-human IL-5 and anti-human IFN-γ coated 96 well plates were obtained and blocked with 10% AB serum in RPMI. The plates were washed thoroughly and the isolated T cells were plated and incubated with either single peptides (2 μg/ml) or peptide mixes (2 μg/ml), or allergens nPhl p1, nPhl p 2, nPhl p 3, nPhl p 4, nPhl p 5, Cyn d 1 at 2 μg/ml for 20 hrs/37° C./5% CO2. After the incubation time the cells were removed by emptying the plate. Detection antibodies 7-B6-1-FS-FITC (1:200) and 5A10-biotin (2 μg/ml) were diluted in PBS-0.1% BSA and were added to the plate and incubated for 2 hours/room temperature (RT). There-after the plates were washed and anti-FITC-green (1:200) and SA-Red (1:200) diluted in PBS±0.1% BSA were added and incubated for 1 hour/RT/dark. After the incubation period the plates were washed, emptied and fluorescence enhancer solution was added for 15 minutes/RT. Plates were emptied, fluorescence enhancer solution was firmly tapped out against a clean paper, soft plastic under drain was removed and the plates were left in the dark to dry. The counts were inspected in a fluorospot reader. Hit criteria for peptide were 20 SFCs/10^6 PBMCs, p≤0.05 and poisson 0.05 stimulated cells compared to background, and a stimulation index (SI)≥2.
(§4) The peptides were identified as hits if they fulfilled the criteria as mentioned below where stimulation index (SI) value of 2 or above, Poisson value=<0.05 and P value=<0.05, SFC>=20 (IL-5/IFN-g)/10^6 cells and CPM>=1000 (proliferation) SI can be defined as [[…]/medium control] in a Fluorospot assay and [counts per minute (cpm)/medium control] in a proliferation assay.

[2] = test system: allergen specific T cells; test: T cell proliferation assay (72 h) on donor derived T cell lines (TCL02/TCL03); settings: for Proliferation % donor coverage (TCL-02 DK1): T cell lines TCL-02 DK1, 30 donors, hit criteria SI>=2, CPM>=1000; for Proliferation strength (TCL-02 DK1): T cell lines TCL-02 DK1, strength of response (average relative magnitude)
Text: Isolated PBMCs (peripheral blood mononuclear cells) obtained from the donors described in Example 2 were CD8 depleted and the T cell lines were established by stimulating the cultures with nPhl p1, mix of nPhl p 2 and […] 5 and […] established for each of the donors tested by stimulating with the mixture of above listed allergens. Grass allergic donors were recruited (cohort DK1 including 30 grass allergic individuals, DK2 including 24 grass allergic individuals and US1 including 15 grass allergic individuals). PBMCs were isolated from freshly drawn heparinized blood by gradient centrifugation on lymphoprep (Nycomed, Norway), washed twice and re-suspended in RPMI 1640 medium with HEPES and ultraglutamine (Cambrex, Belgium) supplemented with 5% v/v human AB-serum (Cambrex, Belgium), 100 units/ml penicillin, and 0.1 mg/ml streptomycin (Sigma, St Louis, USA) (referred to as 5% AB-medium). Aliquots of the isolated PBMCs were frozen and were thawed later to stimulate the T cell lines. Additionally either fresh or thawed PBMCs were used as antigen presenting cells (APCs) in the proliferation assay as described later. In some cases the PBMCs were freezed at this stage and thawed later on to continue the experiment as described in the following. The isolated PBMCs (fresh or thawed) were CD8 depleted by MACS magnetic depletion according to the manufacturer's instructions (Miltenyi Biotec, Bergisch Gladbach, Germany). On day 0 the CD8-depleted PBMCs (2×10^6/ml) were stimulated in 1 ml bulk cultures in AB medium in 24 well plates (Nunc, Denmark) with the mixture of natural allergens: nPhl p 1 (0.5 μg/ml), mix of […]). […] On day 14 cells were harvested to obtain T cell line generation 01 (referred to as TCL01). Restimulation of T cell lines were performed in AB-medium with the thawed autologous PBMCs (10^6/well, irradiated 2500 Rad), the above mixture of natural allergens (concentration as mentioned above), and PHA-P (0.5 μg/ml, Difco, Detroit, Mich., USA). rIL-2 was added at day 17, 18 and 19. On day 24 cells were harvested to obtain T cell line generation 02 (referred as TCL02). T cells were isolated, washed, counted and used for T cell proliferation assay as described later. Remaining cells were frozen for later thawing and re-stimulations. The T cell line generation 2 (TCL02) were thawed and were re-stimulated with allogeneic Epstein Bar Virus transformed lymphoblastoid cell lines (EBV) B cells (JY cells, 10^5/well, irradiated 3500 Rad), allogeneic PBMCs (10^6/well, irradiated 2500 Rad), and 0.5 μg/ml PHA-P and subsequent addition of rIL-2 at days 3-5 to generate T cell line generation 03 (referred to as TCL03). […] To summarize ELISpot experiments were carried out at day 14 (with TCL01) and proliferation assay on either day 24 (with TCL02) or at day 34 (with TCL03). […] To ensure that all T cell epitopes regions from the major and intermediate grass allergens of the grass were identified T cell screening was carried out with either overlapping peptides or selected peptides. […] These were overlapping 20-mer peptides spanning the entire full length amino acid sequence of […] and selected high binder peptides from Phl p 4 were tested. Additionally 21, 15 mer peptides were tested which were derived from various group 1 and 5 allergens. Also, 67 peptides from homologous grass allergens were tested. Finally some reference peptides and mixes thereof were also tested. The 15-mer peptides were selected on the basis of predicted and measured promiscuous HLA binding and of sequence homology between known proteins sequences from the relevant pooideae grasses and the Bermuda grass. […] To get comprehensive data from all the donors the peptides were tested in both Fluorospot/Elispot (day 14, TCL01) and proliferation (day 24, TCL02).

[3] = test system: release of IFN-γ upon T cell activation; test: Fluorospot assay, IFN-γ release (DK1-TCL01, US1-TCL01); settings: head prints TCL-02 DK1; 17 TCL-01 DK1 lines
Procedure: as §1, §2, §3, §4

## CC[C@H](C)[C@H](NC(=O)[C@@H](NC(=O)[C@H](CCCNC(=N)N)NC(=O)[C@H](CC(C)C)NC(=O)[C@H](C)NC(=O)[C@H](CCC(=O)O)NC(=O)[C@@H](NC(=O)[C@H](CC(C)C)NC(=O)[C@@H](NC(=O)[C@H](C)NC(=O)[C@@H](NC(=O)[C@H](Cc1ccc(O)cc1)NC(=O)[C@H](C)NC(=O)[C@@H](N)CC(=O)O)C(C)C)[C@@H](C)O)[C@@H](C)O)C(C)C)C(=O)N[C@@H](C)C(=O)O [compound 128]
[1]
  IL-5-Fluorospotr % donor coverage (TCL-02 DK1): 41.67%
[2]
  Proliferation % donor coverage (TCL-02 DK1): 60.00%
  Proliferation strength (TCL-02 DK1): 13.50
[3]
  IFN-gamma % donor coverage (TCL-02 DK1): 12.00%

## CC[C@H](C)[C@H](NC(=O)[C@H](CCC(=O)O)NC(=O)[C@H](Cc1c[nH]c2ccccc12)NC(=O)[C@@H](NC(=O)CNC(=O)[C@@H](N)CC(=O)O)C(C)C)C(=O)N[C@@H](CCCCN)C(=O)N[C@@H](CO)C(=O)N[C@@H](CC(=O)O)C(=O)N[C@@H](CCCCN)C(=O)N1CCC[C@H]1C(=O)N[C@@H](CC(C)C)C(=O)N[C@@H](CCCCN)C(=O)NCC(=O)N1CCC[C@H]1C(=O)O [compound 130]
[1]
  IL-5-Fluorospotr % donor coverage (TCL-02 DK1): 12.50%
[2]
  Proliferation % donor coverage (TCL-02 DK1): 10.34%
  Proliferation strength (TCL-02 DK1): 1.80
[3]
  IFN-gamma % donor coverage (TCL-02 DK1): 4.00%

## CC[C@H](C)[C@H](NC(=O)[C@@H](N)CC(=O)O)C(=O)N[C@@H](CC(N)=O)C(=O)N[C@H](C(=O)NCC(=O)N[C@@H](Cc1ccccc1)C(=O)N[C@@H](CCCCN)C(=O)N[C@@H](C)C(=O)N[C@@H](C)C(=O)N[C@H](C(=O)N[C@@H](C)C(=O)N[C@@H](C)C(=O)N[C@@H](C)C(=O)N[C@@H](C)C(=O)NCC(=O)O)C(C)C)C(C)C [compound 131]
[1]
  IL-5-Fluorospotr % donor coverage (TCL-02 DK1): 22.22%
[2]
  Proliferation % donor coverage (TCL-02 DK1): 55.55%
  Proliferation strength (TCL-02 DK1): 6.50
[3]
  IFN-gamma % donor coverage (TCL-02 DK1): 0.00%

## CC(C)[C@H](NC(=O)[C@H](C)NC(=O)[C@H](C)NC(=O)[C@H](CCCCN)NC(=O)[C@@H](N)Cc1ccccc1)C(=O)N[C@@H](C)C(=O)N[C@@H](C)C(=O)N[C@@H](C)C(=O)N[C@@H](C)C(=O)NCC(=O)N[C@@H](C)C(=O)N1CCC[C@H]1C(=O)N1CCC[C@H]1C(=O)N[C@@H](C)C(=O)N[C@@H](CC(=O)O)C(=O)O [compound 133]
[1]
  IL-5-Fluorospotr % donor coverage (TCL-02 DK1): 21.74%
[2]
  Proliferation % donor coverage (TCL-02 DK1): 31.03%
  Proliferation strength (TCL-02 DK1): 4.70
[3]
  IFN-gamma % donor coverage (TCL-02 DK1): 0.00%

## AAESSSKAALTSKLDAAYKL-OH [compound 78]
[1]
  IL-5-Fluorospotr % donor coverage (TCL-02 DK1): 0.00%
[2]
  Proliferation % donor coverage (TCL-02 DK1): 16.67%
  Proliferation strength (TCL-02 DK1): 3.00
[3]
  IFN-gamma % donor coverage (TCL-02 DK1): 0.00%

## AAGVPPADKYRTFVATFGAA-OH [compound 75]
[1]
  IL-5-Fluorospotr % donor coverage (TCL-02 DK1): 0.00%
[2]
  Proliferation % donor coverage (TCL-02 DK1): 10.00%
  Proliferation strength (TCL-02 DK1): 1.10
[3]
  IFN-gamma % donor coverage (TCL-02 DK1): 0.00%

## AEGLSGEPKGAAESSSKAAL-OH [compound 77]
[1]
  IL-5-Fluorospotr % donor coverage (TCL-02 DK1): 0.00%
[2]
  Proliferation % donor coverage (TCL-02 DK1): 3.33%
  Proliferation strength (TCL-02 DK1): 0.40
[3]
  IFN-gamma % donor coverage (TCL-02 DK1): 0.00%

## AEPAGKATTEEQKLIEKINA-OH [compound 74]
[1]
  IL-5-Fluorospotr % donor coverage (TCL-02 DK1): 4.00%
[2]
  Proliferation % donor coverage (TCL-02 DK1): 10.00%
  Proliferation strength (TCL-02 DK1): 1.50
[3]
  IFN-gamma % donor coverage (TCL-02 DK1): 0.00%

## AEVELRQHGSEEWEPLTKKG-OH [compound 43]
[1]
  IL-5-Fluorospotr % donor coverage (TCL-02 DK1): 4.00%
[2]
  Proliferation % donor coverage (TCL-02 DK1): 3.33%
  Proliferation strength (TCL-02 DK1): 0.70
[3]
  IFN-gamma % donor coverage (TCL-02 DK1): 0.00%

## AFGAMAKKGDEQKLRSAGEL-OH [compound 22]
[1]
  IL-5-Fluorospotr % donor coverage (TCL-02 DK1): 4.00%
[2]
  Proliferation % donor coverage (TCL-02 DK1): 26.67%
  Proliferation strength (TCL-02 DK1): 2.10
[3]
  IFN-gamma % donor coverage (TCL-02 DK1): 15.00%

## AGELELQFRRVKSKYPEGTK-OH [compound 7]
[1]
  IL-5-Fluorospotr % donor coverage (TCL-02 DK1): 28.00%
[2]
  Proliferation % donor coverage (TCL-02 DK1): 40.00%
  Proliferation strength (TCL-02 DK1): 8.10
[3]
  IFN-gamma % donor coverage (TCL-02 DK1): 4.00%

## AGYTPAAPAGAEPAGKATTE-OH [compound 61]
[1]
  IL-5-Fluorospotr % donor coverage (TCL-02 DK1): 16.00%
[2]
  Proliferation % donor coverage (TCL-02 DK1): 26.67%
  Proliferation strength (TCL-02 DK1): 3.40
[3]
  IFN-gamma % donor coverage (TCL-02 DK1): 0.00%

## AIGDKPGPNITATYGSKWLE-OH [compound 89]
[1]
  IL-5-Fluorospotr % donor coverage (TCL-02 DK1): 0.00%
[2]
  Proliferation % donor coverage (TCL-02 DK1): 6.67%
  Proliferation strength (TCL-02 DK1): 1.10
[3]
  IFN-gamma % donor coverage (TCL-02 DK1): 0.00%

## AMSEAQKAAKPAAAATATAT-OH [compound 86]
[1]
  IL-5-Fluorospotr % donor coverage (TCL-02 DK1): 0.00%
[2]
  Proliferation % donor coverage (TCL-02 DK1): 10.00%
  Proliferation strength (TCL-02 DK1): 1.40
[3]
  IFN-gamma % donor coverage (TCL-02 DK1): 0.00%
